Columns and labels:
5-HT1A receptor = molecular target: T1, 5-HT1A receptor (Rattus norvegicus, UniProt P19327); assay: [3H]8-OH-DPAT binding (5HT1A receptors), rat hippocampi; settings: 1 nM [3H]8-OH-DPAT, read-out: Binding affinity for the 5-HT1A receptor, Ki
T1 construct: Rat hippocampi were homogenized in 50 volumes of ice-cold 50 mM Tris-HCl pH 7.4; from tissue; host or cells: rat hippocampus membranes
T1 sequence (P19327 1-422): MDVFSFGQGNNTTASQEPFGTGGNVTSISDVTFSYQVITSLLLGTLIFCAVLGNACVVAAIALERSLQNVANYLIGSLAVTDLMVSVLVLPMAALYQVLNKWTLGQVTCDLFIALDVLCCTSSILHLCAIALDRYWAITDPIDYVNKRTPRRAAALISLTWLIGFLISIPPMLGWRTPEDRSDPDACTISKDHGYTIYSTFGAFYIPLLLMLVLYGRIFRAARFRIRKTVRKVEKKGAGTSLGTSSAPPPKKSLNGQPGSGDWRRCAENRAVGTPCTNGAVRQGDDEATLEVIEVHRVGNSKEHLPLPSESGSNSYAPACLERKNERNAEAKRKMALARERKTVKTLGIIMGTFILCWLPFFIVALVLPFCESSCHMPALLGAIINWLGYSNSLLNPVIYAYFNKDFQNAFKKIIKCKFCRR
Procedure: [^3H]8-OH-DPAT binding (5HT1A receptors):
Rat hippocampi were homogenized in 50 volumes of ice-cold 50 mM Tris-HCl pH 7.4. The homogenates were centrifuged at 48,000 x g for 10 minutes, and the pellets were resuspended in the same volume of ice-cold buffer, incubated for 10 minutes at 37°C, centrifuged and resuspended two more times. The final pellets obtained were resuspended in 100 volumes of 50 mM Tris-HCl, pH 7.4, containing 0.1 % ascorbic acid and 10 µM pargyline. 1 ml samples were incubated for 30 min at 25°C with 1 nM [^3H]8-OH-DPAT, in absence or presence of different concentrations (10^-5 to 10^-10 M) of the test compound. Non-specific binding was determined in the presence of 10 µM 5-HT. The incubations were terminated by rapid filtration through Whatman GF/B filters using a Brandel cell harvester, after which the filters were washed with 3 x 3 ml of ice-cold buffer. The radioactivity retained on the filters was determined by liquid scintillation counting.

[1] = test system: cystometric parameters (bladder volume capacity, micturition pressure); assay: Cystometric parameters (BVC, MP) in the conscious rat; assay type: in vivo, rats; settings: for BVC before treatment / MP before treatment: baseline; for BVC before treatment / MP before treatment / BVC after treatment / MP after treatment: mean±S.E.
Procedure: Male Sprague Dawley rats (Crl: CD° BR) weighing 250-350 g were used. The animals were housed with free access to food and water and maintained on a forced 12 h alternating light-dark cycle at 22-24°C for at least one week, except during performance of the experiment.
An approximately 10 mm long midline incision was made in the shaved and cleaned abdominal wall. The urinary bladder was gently freed from adhering tissues, emptied, and then cannulated, via an incision at the dome, with a polyethylene cannula (Portex PP30), which was permanently sutured with silk thread. The cannula was exteriorized through a subcutaneous tunnel in the retroscapular area, where it was connected with a plastic adapter to avoid the risk of removal by the animal. For intravenous (i.v.) injection of test compounds, a PE 50 polyethylene tubing filled with physiological saline was inserted into the jugular vein and exteriorized in the retroscapular area.
Since cystometrographic parameters have been reported to be influenced by the time elapsed after catheter implantation […].
On the day of the experiment, the rats were placed in Bollman's cages; after a stabilization period of 20 min, the free tip of the bladder catheter was connected through a T-shaped tube to a pressure transducer (Bentley T 800/Marb P 82) and to a peristaltic pump (Gilson minipuls 2) for a continuous infusion, at the constant rate of 0.1 ml/min, of saline solution into the urinary bladder. The intraluminal pressure signal during infusion was continuously recorded on a polygraph (Battaglia Rangoni KO 380 with ADC1/T amplifier). Two urodynamic parameters were evaluated: bladder volume capacity (BVC) and micturition pressure (MP). BVC (in ml) is defined as the minimum volume infused after which detrusor contraction (followed by micturition) occurs. MP (in mmHg) is defined as the maximal intravesical pressure induced by the contraction of detrusor during micturition. Basal BVC and MP values were calculated as the means of the first two recorded cystometrograms. At this point, the infusion was interrupted and the test compounds were administered. Fifteen minutes after intravenous administration, or one hour after oral drug administration, two additional cystometrograms were recorded in each animal and the mean values of the two cystometrographic parameters were calculated.
The statistical significance of the differences in urodynamic parameter values was evaluated by Student's t test for paired data. Only changes showing a probability P<0.01 were considered to be significant.

[2] = test system: pre-synaptic 5-HT1A receptor; assay: Antagonism of hypothermia induced by 8-OH-DPAT in mice; assay type: in vivo; settings: s.c., hypothermia induced by 0.5 mg/kg s.c. 8-OH-DPAT
Procedure: Antagonism of hypothermia induced by 8-OH-DPAT in mice:
The antagonistic effect of 5-HT1A receptor antagonists on hypothermia induced by 8-OH-DPAT was evaluated by the method of Moser (Moser, Eur. J. Pharmacol., 193, 165, 1991) with minor modifications.
Male CD-1 mice (28-38 g) obtained from Charles River (Italy) were housed in a climate-controlled room (temperature 22 ± 2°C; humidity 55 ± 15%) and maintained on a 12 h light/dark cycle with free access to food and water. On the day of experiment, mice were placed singly in clear plastic boxes under the same ambient conditions. Body temperature was measured by the insertion of a temperature probe (Termist TM-S, LSI) into the rectum to a depth of 2 cm. Rectal temperature was measured immediately prior to subcutaneous injection of the test compound and 30 min later. All animals then received 8-OH-DPAT (0.5 mg/kg s.c.) and their temperature was measured 30 min later. For each animal, temperature changes were calculated with respect to pretreatment values and the mean values were calculated for each treatment group.

[3] = 30 µg/kg i.v., 15 min after injection
[4] = 100 µg/kg i.v., 15 min after injection
[5] = 300 µg/kg i.v., 15 min after injection
[6] = 10 mg/kg p.o., 1 hour after oral administration
[7] = 30 mg/kg p.o., 1 hour after oral administration
[8] = conscious rats, i.v., NAN-190 up to the highest administrable dose of 300 µg/kg

Structure (SMILES): COc1ccccc1N1CCN(CCCCN2C(=O)c3ccccc3C2=O)CC1 [NAN-190, 1-(2-methoxyphenyl)-4-[4-(2-phthalimido)-butyl]-piperazine]
- Ki (5-HT1A receptor): 1.9 nM
- BVC before treatment ([1]; 30 µg/kg i.v. group): 0.74 ± 0.09 mL
- MP before treatment ([1]; 30 µg/kg i.v. group): 99.4±10.1 mmHg
- BVC % change [1, 3]: +6%
- MP % change [1, 3]: +5%
- BVC after treatment [1, 3]: 0.78 ± 0.10 mL
- MP after treatment [1, 3]: 104.6±9.7 mmHg
- BVC before treatment ([1]; 100 µg/kg i.v. group): 0.68 ± 0.10 mL
- MP before treatment ([1]; 100 µg/kg i.v. group): 93.8±11.5 mmHg
- BVC % change [1, 4]: +12%
- MP % change [1, 4]: -12%
- BVC after treatment [1, 4]: 0.76 ± 0.10 mL
- MP after treatment [1, 4]: 82.5±9.2 mmHg
- BVC before treatment ([1]; 300 µg/kg i.v. group): 0.62 ± 0.06 mL
- MP before treatment ([1]; 300 µg/kg i.v. group): 86.6±10.3 mmHg
- BVC % change [1, 5]: -1%
- MP % change [1, 5]: +2%
- BVC after treatment [1, 5]: 0.61 ± 0.06 mL
- MP after treatment [1, 5]: 88.4±11.8 mmHg
- BVC before treatment ([1]; 10 mg/kg p.o. group): 0.54 ± 0.08 mL
- MP before treatment ([1]; 10 mg/kg p.o. group): 106.1±10.4 mmHg
- BVC % change [1, 6]: -14%
- MP % change [1, 6]: -14%
- BVC after treatment [1, 6]: 0.46 ± 0.07 mL
- MP after treatment [1, 6]: 90.8±12.5 mmHg
- BVC before treatment ([1]; 30 mg/kg p.o. group): 0.71 ± 0.09 mL
- MP before treatment ([1]; 30 mg/kg p.o. group): 105.1±10.5 mmHg
- BVC % change [1, 7]: -15%
- MP % change [1, 7]: -9%
- BVC after treatment [1, 7]: 0.60 ± 0.09 mL
- MP after treatment [1, 7]: 95.8±15.3 mmHg
- effect on BVC (in words) [1, 8]: devoid of significant effects
- effect on MP (in words) [1, 8]: devoid of significant effects
- activity on cystometric parameters after oral administration (in words) ([1]; conscious rats, oral, doses up to 30 mg/kg): inactive
- ID50 (95%) C.L., antagonistic activity for the pre-synaptic 5-HT1A receptor [2]: not active

Source: patent EP0906100B1, “USE OF 5-HT 1A? RECEPTOR ANTAGONISTS FOR THE TREATMENT OF URINARY INCONTINENCE” (RECORDATI S.A., priority 1996, dated 1997)
